Source: PubChem BioAssay AID179 (DTP/NCI, 2004)
“And” between values parts separate entries of the source, which are not always exact repeats. Equal values may be shown once. The source made the active and inactive calls.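 How the source made its calls: active means compounds giving half or more protection of infected cells from virus-caused growth loss, again on retest; inactive means the rest.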 Where a SMILES comes first, the peptide text is derived from it. The star is where a group is joined. Myristoyl = CCCCCCCCCCCCCC(=O)*

Tested on: CEM cells HIV-1 protection, formazan growth assay
Test: NCI AIDS Antiviral Assay
Settings: for IC50: measured here: growth of uninfected CEM cells
Procedure, shortened: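 Five concentrations of each compound were applied to infected and uninfected human CEM cells. Protection from HIV-1 was judged from growth measured with a soluble formazan assay.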

SMILES	EC50	IC50	outcome
CC(=O)N1CC2(CN(C(C)=O)CC3(C1)OCCO3)OCCO2	> 200 µM	> 200 µM	–
O=C1CCc2nc3ccccc3c(=O)n21	> 1260 µM	> 1260 µM	–
COc1cc(N(CCC#N)CCC#N)ccc1/C(N=Nc1ccc(Cl)cc1)=N/NC(=O)c1cc(Br)ccc1O	> 100 µM	17.4 µM	–
CCOP(=O)(OCC)C(=Cc1ccccc1)P(=O)(OCC)OCC	> 661 µM	398 µM	–
C/C=C/C=Nc1c(C#N)c2n(c1C(=O)Nc1ccccc1)CCCC2	> 50.1 µM	> 50.1 µM	–
N#CC1CC2(C1)OCCS2 (stereo unspecified)	–	–	inactive
O=c1[nH]nc(Cc2ccccc2)n1O	> 200 µM	> 200 µM	–
CC(=O)OC1CCC2(C)C(CCC3C2CCC2(C)C3CCC2C(C)(C)O)C1 (stereo unspecified)	> 200 µM	174 µM	–
N#CCCN(C(=O)Nc1ccccc1)[C@H]1CCCC[C@@H]1N(C(=O)Nc1ccccc1)c1ccccc1	> 200 µM	33.1 µM	–
Cc1ccc(/C([O-])=C(/C(=S)Nc2ccccc2)[n+]2ccccc2)cc1	> 200 µM	> 200 µM	–
O=C1C[C@H](c2ccccc2)C2(C(=O)c3ccccc3C2=O)[C@H](c2ccccc2)C1	> 102 µM	> 102 µM	–
CCCc1c(C(=O)OCC)[nH]c(C(=O)CCC(=O)c2[nH]c(C(=O)OCC)c(CCC)c2C(=O)OCC)c1C(=O)OCC	> 17 µM	> 17 µM	–
COc1ccc(NC(=O)CC(=O)n2nc(-c3ccccc3)c(N=Nc3ccccc3C)c2-c2ccccc2)cc1	> 13.5 µM	> 13.5 µM	–
Cc1cc(C)nc(NS(=O)(=O)c2ccc(NC(=O)c3ccc4nc5ccccc5c(Nc5ccc(S(=O)(=O)N=C(N)N)cc5)c4c3)cc2)n1	72.4 µM	141 µM	–
CCN(CC)C(=S)SS(=O)(=O)c1ccccc1C(=O)O	> 200 µM	112 µM	–
O=C(O)c1cc2c(ncc3c(=O)n(-c4ccccc4)[nH]c32)s1	> 115 µM	> 115 µM	–
Cc1cc2c(=O)cc(-c3ccc(Cl)cc3)oc2c(C(=O)O)c1C	–	–	inactive
COc1cc(C(=O)C/C(CCC(=O)Nc2ccc(Cl)cc2Cl)=N/Nc2nnc(C)n2N)ccc1O	> 50.1 µM	> 50.1 µM	–
COc1cc(-c2cc(=O)c3cc(Cl)cc(Cl)c3o2)cc(OC)c1OC	> 100 µM	> 100 µM	–
CC[C@@H](C)C(=O)O[C@@H]1CC[C@]2(CO2)C2(COC(C)=O)C(OC(C)=O)CC(C)[C@](C)(C[C@H](O)C3=CC(=O)OC3)[C@@H]12 (stereo partly specified)	–	–	inactive
CCOC(=O)/C(=C\c1c(C)[nH]c2ccccc12)P(=O)(OCC)OCC	69.2 µM	110 µM	–

SMILES	EC50	IC50	outcome
S=c1[nH]c2ccccc2s1.[Zn+2]	> 26.3 µM	> 26.3 µM	–
C=C1CN(S(=O)(=O)c2ccc(C)cc2)CCCN(C(=O)OC(C)C)CCCN(S(=O)(=O)c2ccc(C)cc2)C1	> 200 µM	14.1 µM	–
Cc1cc2cc3ccc(Cl)nn3c2nn1	> 200 µM	> 200 µM	–
CC12CCC(C(=O)n3c1nc1ccccc13)C(C)(C)O2 (stereo unspecified)	> 200 µM	> 200 µM	–
Cc1cc(N(CCC#N)CCC#N)ccc1/C(Sc1ccccc1)=C(\NC(=O)/C=C/c1ccccc1)C(=O)Sc1ccccc1	> 21.4 µM	12.6 µM	–
COc1ccc2c(c1)N(CC(C)CN(C)C)c1ccccc1S2 (stereo unspecified)	> 200 µM	> 200 µM	–
O=C1C=CC(=CC=C2C=CN(CCCCCCCCCCC(=O)NCCCCCCCCCCCC(=O)O)C=C2)C=C1	–	–	inactive
Cc1ccc2cc(N)c3ccc(C)nc3c2n1.Cc1ccc2cc(N)c3ccc(C)nc3c2n1.O=C1OC(C(O)C[O-])C(O)=C1O.[Cu+]	> 12.6 µM	0.55 µM	–
CN1CCN(/C(N)=C(\C#N)C(=O)Nc2ccc(Cl)cc2)CC1	> 200 µM	> 100 µM	–
Cc1nn2c(=O)[nH]cnc2c1Cl	> 229 µM	> 229 µM	–
N#Cc1cc2cccn2c2c1cnn2-c1ccccc1	> 200 µM	43.7 µM	–
COC1(OC)c2no[n+]([O-])c2CCC1O (stereo unspecified)	> 200 µM	> 200 µM	–
COc1ccc2ccc3[nH]c4c(C)cnc(NCCCN(C)C)c4c3c2c1	> 2 µM	0.331 µM	–
CCCCN=NNc1cn(C2OC(CO)C(O)C2O)c(=O)[nH]c1=O (stereo unspecified)	> 200 µM	> 200 µM	–
Clc1ccc2c(NCCCCN=Cc3ccccc3)ccnc2c1	> 200 µM	26.9 µM	–
CC1CCN(CCC(=O)CC(c2ccccc2)c2c(O)c3ccccc3oc2=O)CC1 (stereo unspecified)	> 97.7 µM	57.5 µM	–
O=C1CN(c2ccc(Cl)cc2)C(=O)CN1NCNN1CC(=O)N(c2ccc(Cl)cc2)CC1=O	> 200 µM	> 200 µM	–
CCOC(=O)C1(Cc2ccccc2)Cc2ccccc2C1=O (stereo unspecified)	> 200 µM	37.2 µM	–
O=C1OC(Cc2ccccc2)=C(Cl)C(Cl)(Cc2ccccc2)C1Cl (stereo unspecified)	> 200 µM	5.25 µM	–
CC(=O)OC12C3C4C1C1C2C3C41OC(C)=O (stereo unspecified)	> 200 µM	> 200 µM	–
N#CCCCCn1cnc2c(N)ncnc21	> 200 µM	> 200 µM	–

SMILES	EC50	IC50	outcome
Cc1ccc2nc(N/N=C/c3ccc(C)s3)cc(C)c2c1	> 200 µM	14.5 µM	–
O=C(c1ccco1)N(C(=S)N1CCN(c2ccccc2)CC1)c1ccccc1	> 18.2 µM	> 18.2 µM	–
NC(Cc1ccc(OCc2ccccc2)cn1)C(=O)OCc1ccccc1 (stereo unspecified)	> 200 µM	> 200 µM	–
COC(=O)c1ccc(S)c(S(=O)(=O)Nc2n[nH]c(N)n2)c1	> 200 µM	> 200 µM	–
O=c1[nH]nnc2cc(Cl)ccc12	> 200 µM	> 200 µM	–
Cc1cccc(C(C)(C)C)c1NC(=O)/C(Cc1nc2ccc([N+](=O)[O-])cc2[nH]c1=O)=N/NC(=O)C[N+](C)(C)C	> 437 µM	60.3 µM	–
COc1cc(=O)oc2c3c(ccc12)OC(C)(C)[C@H](OC(=O)C12CCC(C)(C(=O)O1)C2(C)C)[C@@H]3OC(=O)C12CCC(C)(C(=O)O1)C2(C)C (stereo partly specified)	0.257 µM	51.3 µM	–
CCC(C)NC1=NCC(C)S1 (stereo unspecified)	> 200 µM	> 200 µM	–
CCOC(C)OC1CC(n2cc(C)c(=O)[nH]c2=O)OC1CO (stereo unspecified)	> 14.8 µM	13.2 µM	–
O=C(Nc1ccc(CC2=NCCCN2)cc1)c1ccc(C(=O)Nc2ccc(CC3=NCCCN3)cc2)cc1	> 200 µM	112 µM	–
Cc1ccc(/C=C2\CCS(=O)(=O)c3ccccc3C2=O)cc1	> 200 µM	9.77 µM	–
COc1c(C)c(C/C=C(\C)CC/C=C(\C)CC/C=C(\C)CCC=C(C)C)c(OC)c(OC)c1OC	> 200 µM	> 200 µM	–
CCCCOCC(=O)C1CC[C@@H]2[C@H](CC[C@]3(C)[C@@H](O)CC[C@@H]23)[C@H]1C(=O)O (stereo partly specified)	> 50.1 µM	> 50.1 µM	–
COc1cc(C(C)O)c[n+](CCc2c[nH]c3ccccc23)c1 (stereo unspecified)	> 234 µM	> 234 µM	–
CC(=O)c1sc(Nc2ccc(Cl)c(Cl)c2)nc1C	–	–	inactive
O=C1c2ccccc2-n2c1nc1ccccc1c2=O	> 200 µM	52.5 µM	–
S=C1Nc2ccccc2SC1c1ccccc1 (stereo unspecified)	> 200 µM	31.6 µM	–
O=C1C=C2C=CC3CC2(O1)C1CCCCN31 (stereo unspecified)	> 1150 µM	8.91 µM and 5.37 µM	–
CCOC(=O)C/C=C\S[C@@H]1[C@H](NC(=O)COc2ccccc2)C(=O)N1C(C(=O)OCc1ccc([N+](=O)[O-])cc1)=C(C)C	> 4.37 µM	> 4.37 µM	–
COc1ccc2c(c1C)C(=O)C(O)(CC=C(C)C)O2 (stereo unspecified)	> 200 µM	42.7 µM	–
CCOC(=O)c1ccc(-c2ccc(Cl)cc2)[nH]1	> 200 µM	44.7 µM	–

SMILES	EC50	IC50	outcome
O=C(c1ccncc1)n1nc(-c2ccccc2)c(N=Nc2ccccc2[N+](=O)[O-])c1-c1ccccc1	> 39.8 µM	> 39.8 µM	–
O=C1CN(N2CCOCC2)CC(=O)N2CCCCN12	19.1 µM	> 200 µM	–
COC(=O)[C@@H](O)[C@](O)(CCC(C)C)C(=O)O[C@@H]1C(OC)=C[C@]23CCCN2CCc2cc4c(cc2[C@H]13)OCO4	> 245 µM	0.575 µM	–
O=[N+]([O-])c1cccc2c(Nc3ccc(S(=O)(=O)Nc4nccs4)cc3)c3ccccc3nc12	> 200 µM	21.9 µM	–
COc1ccc(C2=C/C(=C3\C(=O)Oc4ccccc4C3=O)SS2)cc1	> 200 µM	> 200 µM	–
N#C/C(c1nc2ccccc2[nH]1)=c1\s/c(=C/c2ccc(Cl)cc2)c(=O)n1-c1ccccc1	> 200 µM	107 µM	–
Cc1nc(Cl)nc2c1C(=O)Nc1ccccc1N2	> 52.5 µM	26.9 µM	–
CC(C)C1CC(CO)(CNc2cc(Cl)nc(N)n2)C1 (stereo unspecified)	> 20 µM	19.5 µM	–
CC(C)NC(=O)OCCN=C1c2ccccc2CCc2ccccc21	> 200 µM	27.5 µM	–
CCN(CCO)C(=O)C1(c2ccccc2)CCCCC1	> 501 µM	60.3 µM	–
CCCCCCCCCCCCCC(=O)NCC(=O)NC(CC(N)=O)C(=O)NC(C)C(=O)NC(C)C(=O)NC(C)C(=O)NC(C)C(=O)NC(CCCCN)C(=O)NC(CCCCN)C(=O)NCC(=O)NC(Cc1ccc(O)cc1)C(N)=O (stereo unspecified) (Myristoyl-GNAAAAKKGY-NH2; configuration not given here)	> 214 µM	> 214 µM	–
O=C1c2ccccc2C2C1C(c1ccccc1)C1(Cc3ccccc3C1=O)C2c1ccccc1 (stereo unspecified)	> 200 µM	38.9 µM	–
O=C(CN1CCOCC1)c1ccc2[nH]c(=O)oc2c1	> 200 µM	155 µM	–
CC(=O)[n+]1nc(-c2nc(N)nc(NC3C4CC5CC(C4)CC3C5)n2)oc1-c1ccc(Cl)cc1 (stereo unspecified)	> 11.2 µM	> 11.2 µM	–
N#CNC1=NCOCN1	> 708 µM	> 708 µM	–
COc1cc2c(c3c1[C@H](O)[C@H](C)[C@@H](C)O3)C=CC(C)(C)O2	> 200 µM	81.3 µM	–
CCCCCCC(O)CCCC(O)C1CCC(C2CCC(C(O)CCCCCCCCCCCCC3=CC(C)OC3=O)O2)O1 (stereo unspecified)	–	–	inactive
O=C1C(=Cc2cccc(F)c2)C(=O)c2ccccc21	> 20.9 µM	> 20.9 µM	–
COC(=O)C1C2C=CC(C2)N1S(=O)(=O)c1ccccc1 (stereo unspecified)	> 200 µM	> 200 µM	–
S=C(SSC(=S)N1CCOCC1)N1CCOCC1	> 20 µM	0.724 µM	–
COc1ccc(-c2csc(=[N+]3CCCCC3)s2)cc1	–	–	inactive
